Laboratory results reported in ChEMBL document CHEMBL1124865, “Synthesis and biological evaluation of a series of parenteral 3'-quaternary ammonium cephalosporins” (J Med Chem, 1990).
Values after ≈ are worked out from the molar mass of the structure shown.

How the values were obtained:
Assay type in all cases: functional
Escherichia coli [1] = assay: Antibacterial activity against Escherichia coli TEM
Klebsiella pneumoniae [2] = assay: Antibacterial activity against Klebsiella pneumoniae X26
Staphylococcus aureus [3] = assay: In vivo efficacy against Staphylococcus aureus infected mice treated at 1 hr and 5 hr post infection
Staphylococcus aureus [4] = assay: Antibacterial activity against penicillin G resistance Staphylococcus aureus; settings: Staphylococcus aureus; read-out: MIC
Escherichia coli [5] = assay: Antibacterial activity against Escherichia coli EC14; settings: Escherichia coli; read-out: MIC
Staphylococcus aureus [6] = assay: Antibacterial activity against penicillin G susceptible Staphylococcus aureus
Pseudomonas aeruginosa [7] = assay: Antibacterial activity against Pseudomonas aeruginosa X528
Pseudomonas aeruginosa [8] = assay: Antibacterial activity against Pseudomonas aeruginosa PS18; settings: Pseudomonas aeruginosa; read-out: MIC
Streptococcus pneumoniae = assay: Antibacterial activity against Streptococcus pneumoniae
Enterobacter cloacae [9] = assay: Antibacterial activity against Enterobacter cloacae EB5
Klebsiella pneumoniae [10] = assay: microbe, parasite or virus in culture
Description: Antibacterial activity against Klebsiella pneumoniae 1082E

Enterococcus faecium = assay: Antibacterial activity against Enterococcus faecium; settings: Enterococcus faecium; read-out: MIC
Enterobacter cloacae [11] = assay: Antibacterial activity against Enterobacter cloacae 265A; settings: Enterobacter cloacae; read-out: MIC
Streptococcus pyogenes = assay: Antibacterial activity against Streptococcus pyogenes
Serratia marcescens = assay: Antibacterial activity against Serratia marcescens SE3
Pseudomonas aeruginosa [12] = assay: In vivo efficacy against Pseudomonas aeruginosa infected mice treated at 1 hr and 5 hr post infection
Escherichia coli [13] = assay: In vivo efficacy against Escherichia coli infected mice treated at 1 hr and 5 hr post infection
[14] = Staphylococcus aureus, read-out: MIC
[15] = Escherichia coli, read-out: MIC
[16] = Pseudomonas aeruginosa, read-out: MIC
[17] = Streptococcus pneumoniae, read-out: MIC
[18] = Enterobacter cloacae, read-out: MIC
[19] = Klebsiella pneumoniae, read-out: MIC
[20] = Streptococcus pyogenes, read-out: MIC
[21] = Serratia marcescens, read-out: MIC

| SMILES | MIC (Staphylococcus aureus [4]) [µg/mL] | MIC (Escherichia coli [5]) [µg/mL] | MIC (Staphylococcus aureus [6]; [14]) [µg/mL] | MIC (Escherichia coli [1]; [15]) [µg/mL] | MIC (Pseudomonas aeruginosa [7]; [16]) [µg/mL] | MIC (Pseudomonas aeruginosa [8]) [µg/mL] | MIC (Streptococcus pneumoniae; [17]) [µg/mL] | MIC (Enterobacter cloacae [9]; [18]) [µg/mL] | MIC (Klebsiella pneumoniae [2]; [19]) [µg/mL] | MIC (Klebsiella pneumoniae [10]; [19]) [µg/mL] | MIC (Enterococcus faecium) [µg/mL] | MIC (Enterobacter cloacae [11]) [µg/mL] | MIC (Streptococcus pyogenes; [20]) [µg/mL] | MIC (Serratia marcescens; [21]) [µg/mL] | other results |
| --- | --- | --- | --- | --- | --- | --- | --- | --- | --- | --- | --- | --- | --- | --- | --- |
| CO/N=C(\C(=O)N[C@@H]1C(=O)N2C(C(=O)[O-])=C(C[n+]3ccc(CC(=O)NO)cc3)CS[C@H]12)c1csc(N)n1 (stereo in doubt; 10) |  |  |  |  |  |  |  |  |  |  |  |  |  |  | MIC (Escherichia coli [1]): 0.25 µg/mL (≈ 0.457 µM); MIC (Klebsiella pneumoniae [2]): 0.03 µg/mL (≈ 0.0548 µM); ED50 (Staphylococcus aureus [3]): 7.2 mg/kg |
| CO/N=C(\C(=O)N[C@@H]1C(=O)N2C(C(=O)[O-])=C(C[n+]3ccc4cncnc4c3)CS[C@H]12)c1csc(N)n1 | 32 (≈ 60.8 µM) | 0.25 (≈ 0.475 µM) | 4 (≈ 7.6 µM) | 0.125 (≈ 0.237 µM) | 32 (≈ 60.8 µM) | 64 (≈ 122 µM) | 0.03 (≈ 0.057 µM) | 1 (≈ 1.9 µM) | 0.125 (≈ 0.237 µM) | 16 (≈ 30.4 µM) | 128 (≈ 243 µM) | 16 (≈ 30.4 µM) | 0.06 (≈ 0.114 µM) | 1 (≈ 1.9 µM) |  |
| CO/N=C(\C(=O)N[C@@H]1C(=O)N2C(C(=O)[O-])=C(C[n+]3cscc3C)CS[C@H]12)c1csc(N)n1 | 4 (≈ 8.09 µM) | 0.06 (≈ 0.121 µM) | 2 (≈ 4.04 µM) | 0.06 (≈ 0.121 µM) | 16 (≈ 32.4 µM) | 32 (≈ 64.7 µM) | 0.03 (≈ 0.0607 µM) | 0.25 (≈ 0.505 µM) | 0.06 (≈ 0.121 µM) | 8 (≈ 16.2 µM) | 32 (≈ 64.7 µM) | 8 (≈ 16.2 µM) | 0.03 (≈ 0.0607 µM) | 0.25 (≈ 0.505 µM) |  |
| CO/N=C(\C(=O)N[C@@H]1C(=O)N2C(C(=O)[O-])=C(C[n+]3cccc4c3CCCC4)CS[C@H]12)c1csc(N)n1 [CEFQUINOME] | 2 (≈ 3.78 µM) | 0.03 (≈ 0.0568 µM) | 1 (≈ 1.89 µM) | 0.03 (≈ 0.0568 µM) | 4 (≈ 7.57 µM) | 16 (≈ 30.3 µM) | 0.015 (≈ 0.0284 µM) | 0.125 (≈ 0.236 µM) | 0.03 (≈ 0.0568 µM) | 4 (≈ 7.57 µM) | 128 (≈ 242 µM) | 2 (≈ 3.78 µM) | < 0.008 | 0.125 (≈ 0.236 µM) |  |
| CO/N=C(\C(=O)N[C@@H]1C(=O)N2C(C(=O)[O-])=C(C[n+]3csc(CCOC(C)=O)c3C)CS[C@H]12)c1csc(N)n1 | 4 (≈ 6.89 µM) | 0.03 (≈ 0.0517 µM) | 2 (≈ 3.44 µM) | 0.03 (≈ 0.0517 µM) | 32 (≈ 55.1 µM) | 64 (≈ 110 µM) | 0.015 (≈ 0.0258 µM) | 0.125 (≈ 0.215 µM) | 0.015 (≈ 0.0258 µM) | 8 (≈ 13.8 µM) | 32 (≈ 55.1 µM) | 2 (≈ 3.44 µM) | 0.015 (≈ 0.0258 µM) | 0.125 (≈ 0.215 µM) |  |
| CO/N=C(\C(=O)N[C@@H]1C(=O)N2C(C(=O)[O-])=C(C[n+]3cccc4cc[nH]c43)CS[C@H]12)c1csc(N)n1 | 8 (≈ 15.6 µM) | 0.5 (≈ 0.974 µM) | 1 (≈ 1.95 µM) | 0.125 (≈ 0.243 µM) | 32 (≈ 62.3 µM) | 64 (≈ 125 µM) | 0.015 (≈ 0.0292 µM) | 2 (≈ 3.89 µM) | 0.06 (≈ 0.117 µM) | 64 (≈ 125 µM) | > 128 | 32 (≈ 62.3 µM) | < 0.008 | 0.5 (≈ 0.974 µM) |  |
| CO/N=C(\C(=O)N[C@@H]1C(=O)N2C(C(=O)[O-])=C(C[n+]3ccc4scc(C(=O)O)c4c3)CS[C@H]12)c1csc(N)n1 | 16 (≈ 27.8 µM) | 0.015 (≈ 0.0261 µM) | 2 (≈ 3.48 µM) | 0.06 (≈ 0.104 µM) | 4 (≈ 6.96 µM) | 16 (≈ 27.8 µM) | 0.015 (≈ 0.0261 µM) | 0.125 (≈ 0.218 µM) | 0.015 (≈ 0.0261 µM) | 4 (≈ 6.96 µM) | > 128 | 32 (≈ 55.7 µM) | 0.03 (≈ 0.0522 µM) | 0.03 (≈ 0.0522 µM) |  |
| CO/N=C(\C(=O)N[C@@H]1C(=O)N2C(C(=O)[O-])=C(C[n+]3ccc(CC(=O)NO)cc3)CS[C@H]12)c1csc(N)n1 (stereo in doubt; 7) |  |  |  |  |  |  |  |  |  |  |  |  |  |  | ED50 (Pseudomonas aeruginosa [12]): 19.6 mg/kg; MIC (Streptococcus pneumoniae): 0.015 µg/mL (≈ 0.0274 µM); ED50 (Staphylococcus aureus [3]): 1.5 mg/kg; ED50 (Escherichia coli [13]): 0.04 mg/kg |
| CO/N=C(\C(=O)N[C@@H]1C(=O)N2C(C(=O)O)=C(COC(C)=O)CS[C@H]12)c1csc(N)n1 [CEFOTAXIME] | 16 (≈ 35.1 µM) | 0.03 (≈ 0.0659 µM) | 2 (≈ 4.39 µM) | 0.03 (≈ 0.0659 µM) | 32 (≈ 70.3 µM) | 64 (≈ 141 µM) | 0.015 (≈ 0.0329 µM) | 0.25 (≈ 0.549 µM) | 0.008 (≈ 0.0176 µM) | 1 (≈ 2.2 µM) | > 128 | 32 (≈ 70.3 µM) | 0.015 (≈ 0.0329 µM) | 0.25 (≈ 0.549 µM) |  |
| CO/N=C(\C(=O)N[C@@H]1C(=O)N2C(C(=O)[O-])=C(C[n+]3ccsc3)CS[C@H]12)c1csc(N)n1 | 8 (≈ 16.6 µM) | 0.125 (≈ 0.26 µM) | 4 (≈ 8.32 µM) | 0.125 (≈ 0.26 µM) | 32 (≈ 66.6 µM) | 16 (≈ 33.3 µM) | 0.125 (≈ 0.26 µM) | 0.5 (≈ 1.04 µM) | 0.125 (≈ 0.26 µM) | 8 (≈ 16.6 µM) | 64 (≈ 133 µM) | 32 (≈ 66.6 µM) | 0.125 (≈ 0.26 µM) | 0.25 (≈ 0.52 µM) |  |
| CO/N=C(\C(=O)N[C@@H]1C(=O)N2C(C(=O)[O-])=C(C[n+]3ccc(CC(=O)NO)cc3)CS[C@H]12)c1csc(N)n1 (stereo in doubt; 8) |  |  |  |  |  |  |  |  |  |  |  |  |  |  | MIC (Staphylococcus aureus [6]): 4 µg/mL (≈ 7.3 µM); MIC (Escherichia coli [1]): 0.06 µg/mL (≈ 0.11 µM); MIC (Pseudomonas aeruginosa [7]): 32 µg/mL (≈ 58.4 µM); ED50 (Pseudomonas aeruginosa [12]): >40 mg/kg; MIC (Enterobacter cloacae [9]): 0.5 µg/mL (≈ 0.913 µM); ED50 (Staphylococcus aureus [3]): 2.5 mg/kg; MIC (Klebsiella pneumoniae [10]): 16 µg/mL (≈ 29.2 µM); ED50 (Escherichia coli [13]): 0.82 mg/kg; MIC (Serratia marcescens): 0.5 µg/mL (≈ 0.913 µM) |
| CO/N=C(\C(=O)N[C@@H]1C(=O)N2C(C(=O)[O-])=C(C[n+]3ccc4cnccc4c3)CS[C@H]12)c1csc(N)n1 | 1 (≈ 1.9 µM) | < 0.008 | 1 (≈ 1.9 µM) | < 0.008 | 2 (≈ 3.81 µM) | 2 (≈ 3.81 µM) | < 0.008 | 0.03 (≈ 0.0571 µM) | < 0.008 | 2 (≈ 3.81 µM) | 32 (≈ 60.9 µM) | 2 (≈ 3.81 µM) | < 0.008 | 0.03 (≈ 0.0571 µM) |  |
| CO/N=C(\C(=O)N[C@@H]1C(=O)N2C(C(=O)[O-])=C(C[n+]3ccc4c(S(=O)(=O)O)cccc4c3)CS[C@H]12)c1csc(N)n1 | 8 (≈ 13.2 µM) | 0.015 (≈ 0.0248 µM) | 4 (≈ 6.62 µM) | 0.03 (≈ 0.0496 µM) | 32 (≈ 52.9 µM) | 16 (≈ 26.5 µM) | 0.015 (≈ 0.0248 µM) | 0.25 (≈ 0.413 µM) | 0.03 (≈ 0.0496 µM) | 32 (≈ 52.9 µM) | > 128 | 64 (≈ 106 µM) |  | 0.25 (≈ 0.413 µM) | MIC (Streptococcus pyogenes): 0.015 µg/mL (≈ 0.0248 µM) |
| CO/N=C(\C(=O)N[C@@H]1C(=O)N2C(C(=O)[O-])=C(C[n+]3csc4c3CCCC4)CS[C@H]12)c1csc(N)n1 | 2 (≈ 3.74 µM) | 0.06 (≈ 0.112 µM) | 1 (≈ 1.87 µM) | 0.03 (≈ 0.0561 µM) | 4 (≈ 7.48 µM) | 16 (≈ 29.9 µM) | 0.03 (≈ 0.0561 µM) | 0.125 (≈ 0.234 µM) | 0.03 (≈ 0.0561 µM) | 2 (≈ 3.74 µM) | 16 (≈ 29.9 µM) | 1 (≈ 1.87 µM) | 0.03 (≈ 0.0561 µM) | 0.125 (≈ 0.234 µM) |  |
| CO/N=C(\C(=O)N[C@@H]1C(=O)N2C(C(=O)[O-])=C(C[n+]3cccc4c(O)cccc43)CS[C@H]12)c1csc(N)n1 | 2 (≈ 3.7 µM) | 0.03 (≈ 0.0555 µM) | 2 (≈ 3.7 µM) | 0.06 (≈ 0.111 µM) | 8 (≈ 14.8 µM) | 8 (≈ 14.8 µM) | 0.03 (≈ 0.0555 µM) | 0.5 (≈ 0.925 µM) | 0.03 (≈ 0.0555 µM) | 8 (≈ 14.8 µM) | 128 (≈ 237 µM) | 32 (≈ 59.2 µM) | 0.015 (≈ 0.0277 µM) | 0.5 (≈ 0.925 µM) |  |
| CO/N=C(\C(=O)N[C@@H]1C(=O)N2C(C(=O)[O-])=C(C[n+]3ccc4ccoc4c3)CS[C@H]12)c1csc(N)n1 | 8 (≈ 15.5 µM) | 0.015 (≈ 0.0292 µM) | 1 (≈ 1.94 µM) | 0.015 (≈ 0.0292 µM) | 2 (≈ 3.89 µM) | 8 (≈ 15.5 µM) | 0.015 (≈ 0.0292 µM) | 0.06 (≈ 0.117 µM) | 0.015 (≈ 0.0292 µM) | 4 (≈ 7.77 µM) | > 128 | 8 (≈ 15.5 µM) | < 0.008 | 0.03 (≈ 0.0583 µM) |  |
